Measurements as given in patent US5939322A, “Human steroid receptor” (Merck & Co., Inc., priority 1996, dated 1999).
“Also recorded” adds a separate entry of the source.

Assays:
[1] = system: GR/PPAR; assay: Ligand dependent transcription assay, GR/PPAR chimeric receptor with MMTV-luciferase reporter in COS cells; assay type: cell-based, African green monkey
Method: (§1) Similar hybrid receptors GR/NER, GR/NUC and GR/PPAR, in identical expression plasmid backgrounds were prepared essentially as described for the construction of the GR/mPPAR and GR/NUC chimeric receptors in Schmidt et al., "Identification of a new member of the steroid hormone receptor superfamily that is activated by a peroxisome proliferator and fatty acids," Mol. Endocrinol., 6(10):1634-41, 1992, and in Boie et al., "Enantioselective activation of the peroxisome proliferator-activated receptor", J. Biol. Chem. 269(8):5530-4, 1993.
(§2) Briefly, the amino terminal portion of the mouse glucocorticoid receptor (mGR), that includes the DNA binding domain was fused to the putative ligand binding domains of the nuclear receptor NER, hNUC-I (Schmidt et al., 1992), mPPAR (Issenmann and Green, 1990) to form the respective chimeric receptors GR/NER, GR/NUC and GR/PPAR. The GR/NER chimeric receptor was constructed as described for the GR/NUC and GR/PPAR hybrid receptors (Schmidt et al., 1992; Boie et al). The cDNA sequences coding for amino acids Arg^155 and Glu^156 of the NER receptor were converted to the Xho I restriction site, that was later used for the ligation to the GR cDNA sequences that coded for the DNA binding domain. Thus, converting amino acid residues Arg^155 and Glu^156 of NER receptor to amino acid residues Ser^155 and His^156.
The ligand transcription assay mediated by GR/PPAR in COS cells was performed as described in Example 4. The cells were treated with TOFA and Cerulenin at 0.1, 1, 10 and 100 μM.

[2] = system: SCH 23390 Induced Catalepsy; assay: SCH 23390 (dopamine D1 antagonist) induced catalepsy, bar method; assay type: in vivo; conditions: rats; carrier pretreatment, 24 h later SCH23390 0.5 mg/kg
Method: Rats were pretreated with 0.4 mg/kg TOFA or with carrier (S.C.). Twenty-four hours later, the rats were challenged with 0.5 mg/kg SCH23390, a Dopamine D1 antagonist, and the duration of catalepsy was monitored.
Catalepsy was determined by a modification of the Bar method (Undie and Friedman, 1988). A steel bar, 1.1 cm in diameter and 50 cm long, was suspended at a height of 10 cm above the working surface. Three sides of the bench around the bar were walled off with brown cardboard, and the linings on the bench surface were selected to be of the same color with the cardboard walls. The animal's hind limbs were freely placed on the bench, the tail laid out to the back, and the forelimbs placed over the bar. The length of time a rat stayed up on the bar was noted up to a preset cut-off point of 120 s. The time was counted off upon observing any of the following actions: (1) the animal came off, placing its two forepaws on the bench, (2) the animal climbed onto or over the bar with both hind limbs, (3) the animal initiated locomotion along or around the bar. Subsequently, time readings were translated into scores by awarding a score of 1 for each successfully completed 5 s on the bar. […]
Catalepsy scores were analyzed by computer in accordance with the statistical procedures outlined by Winer, B. J.: Statistical principles in experimental design. […]

[3] = system: GR/NER; assay: Ligand dependent transcription assay, GR/NER chimeric receptor with MMTV-luciferase reporter in CV1 cells; assay type: cell-based, African green monkey; conditions: for Fold of Stimulation GR/NER, Control: no dopamine
Method: (§3) Transient transfection of COS and CV1 cells was performed as described (Schmidt 1992). Cells were plated (1.5×10^5 in 1 mL) into 12 well dishes in phenol red-free medium supplemented with activated charcoal treated fetal calf serum. The next day 0.12 mL of DNA 10 μg/ml (5 μg receptor DNA and 5 μg reporter plasmid), as a calcium phosphate precipitate, was added to the cells. Ligands were added to the cells 30 minutes after transfection. The next day (18 hours), the cells were washed and fresh ligands added. Twenty-four hours later, cell extracts were prepared and assayed for luciferase enzyme activity using the luciferase assay system (Promega Madison, Wis.). Each transfection was performed in triplicate and the luciferase activity of each sample measured in duplicate using the AutoClinilumat (Berthold Nashua, New Hampshire).

[4] = system: GR/NUC; assay: Ligand dependent transcription assay, GR/NUC chimeric receptor with MMTV-luciferase reporter; assay type: cell-based, human; conditions: Table 1
Method: as §1, §2

[5] = system: GR/PPAR; assay: Ligand dependent transcription assay, GR/PPAR chimeric receptor with MMTV-luciferase reporter in COS cells; assay type: cell-based, African green monkey; conditions: Table 1
[6] = system: Haloperidol Induced Catalepsy; assay: Haloperidol (dopamine D2 antagonist) induced catalepsy, bar method; assay type: in vivo; conditions: rats; TOFA 0.4 mg/kg S.C. 24 h before Haloperidol 0.1 mg/kg
[7] = system: promoter of SV40; assay: Luciferase expression from reporter gene under control of the SV40 promoter; assay type: cell-based
[8] = system: PC12 cells; assay: Neurite differentiation of PC12 cells; assay type: cell-based; conditions: TOFA alone, without NGF (data not shown)
Method: To further study the influence of TOFA on the nervous system, we tested the effect of TOFA on the differentiation of PC12 cells. PC12 cells were plated at a density of approximately 100-200/mm^2 on collagen coated plates or dishes in RPMI medium supplemented with 10% horse serum, 5% fetal calf serum, […] streptomycin, 50 U/mL penicillin in a water saturated atmosphere of 95% air and 5% CO2, at 37° C. overnight. […]
At different time points during the treatment, cells were photographed or fixed with 10% formalin. Morphology was examined after four days of treatment with TOFA or vehicle (DMSO). The number of cells bearing neurites and average length of neurites were determined with the aid of the Bioquant imaging system. […] However, as depicted in Table 6 below, NGF alone induced a 15% increase in the number of cells bearing neurites and these outgrowths reached a mean length of 20 μm . Treatment with NGF and TOFA increased the percentage of cells bearing neurites to 78%. Maximal neurite generation is observed at a concentration of 10 μM TOFA.
[…] At least eighty cells from eight wells were analyzed in each group. The results are shown as the mean±SEM. ^a p<0.01, versus vehicle by Dunnetts test.

[9] = system: MMTV-luciferase reporter gene; assay: Luciferase expression in cells transfected only with the MMTV-luciferase reporter gene; assay type: cell-based
Method: as §3

C/C=C/C/C=C/CCC(=O)[C@H]1O[C@H]1C(N)=O [Cerulenin]
Fold of Stimulation GR/PPAR ([1]; 0.1 μM, Table 2, 1440 min): 1.03 ± 0.12 fold | Fold of Stimulation GR/PPAR ([1]; 1.0 μM, Table 2): 1.13 ± 0.05 fold | Fold of Stimulation GR/PPAR ([1]; 10.0 μM, Table 2, 1440 min): 0.58 ± 0.11 fold

CN1CCc2cc(Cl)c(O)cc2C(c2ccccc2)C1 (centres unmarked) [SCH-23390, 8-chloro-2,3,4,5-tetrahydro-3-methyl-5-phenyl-1H-3-benzazepin-7-ol hemimaleate]
Catalepsy Duration [2]: 3.1 ± 1.3 s | Fold of Stimulation GR/NER, Dopamine (50 μM) ([3]; SCH-23390 0.1 μM with dopamine 50 μM): 0.59 ± 0.06 fold | Fold of Stimulation GR/NER, Control ([3]; SCH-23390 0.1 μM): 1.32 ± 0.15 fold | Fold of Stimulation GR/NER, Dopamine (50 μM) ([3]; SCH-23390 1.0 μM with dopamine 50 μM): 0.55 ± 0.09 fold | Fold of Stimulation GR/NER, Control ([3]; SCH-23390 1.0 μM): 1.22 ± 0.11 fold | Fold of Stimulation GR/NER, Dopamine (50 μM) ([3]; SCH-23390 10.0 μM with dopamine 50 μM): 0.83 ± 0.12 fold | Fold of Stimulation GR/NER, Control ([3]; SCH-23390 10.0 μM): 1.64 ± 0.38 fold | Fold of Stimulation GR/NER, Dopamine (50 μM) ([3]; SCH-23390 100 μM with dopamine 50 μM): 2.61 ± 0.86 fold | Fold of Stimulation GR/NER, Control ([3]; SCH-23390 100 μM): 2.38 ± 0.19 fold

CCCCCCCC/C=C\CCCCCCCC(=O)O [Oleic Acid, oleic acid]
Fold of stimulation GR/NUC ([4]; 150 μM): 3.42 ± 0.28 fold | Fold of Stimulation GR/PPAR ([5]; 50 μM): 2.87 ± 0.2 fold | Fold of Stimulation GR/PPAR ([5]; 300 μM): 14.69 ± 0.06 fold

CCCCCCCCCCCCCCOc1ccc(C(=O)O)o1 [TOFA, 5-(tetradecyloxy)-2-furan carboxylic acid]
effect of TOFA pretreatment on Haloperidol-induced catalepsy [6]: did not significantly affect; also recorded: unaffected | stimulation of luciferase expression, reporter under control of the promoter of SV40 [7]: did not stimulate | Fold of Stimulation GR/PPAR ([1]; 0.1 μM, Table 2, 1440 min): 1.04 ± 0.14 fold | Fold of Stimulation GR/PPAR ([1]; 1.0 μM, Table 2): 2.38 ± 0.16 fold | Fold of Stimulation GR/PPAR ([1]; 10.0 μM, Table 2, 1440 min): 4.43 ± 0.23 fold | Fold of Stimulation GR/PPAR ([1]; 100 μM, Table 2, 1440 min): 4.10 ± 0.52 fold | Fold of stimulation GR/NUC ([4]; 2 μM): 1.95 ± 0.14 fold | Fold of stimulation GR/NUC ([4]; 10 μM): 2.85 ± 0.20 fold | Fold of stimulation GR/NUC ([4]; 50 μM): 3.19 ± 0.20 fold | neurite outgrowth [8]: did not induce neurite outgrowth | stimulation of luciferase expression, MMTV-luciferase reporter gene only [9]: did not stimulate | Fold of Stimulation GR/PPAR ([5]; 2 μM): 2.89 ± 0.13 fold | Fold of Stimulation GR/PPAR ([5]; 10 μM): 4.08 ± 0.10 fold | Fold of Stimulation GR/PPAR ([5]; 20 μM): 5.75 ± 0.14 fold
